Molecules are shown by their SMILES.

As a reminder, the logP is the decadic logarithm of the partition coefficient of the neutral form, usually between octanol and water. Higher therefore signals a more lipophilic compound.

`CN1CC=C(c2ccc(N)cc2)CC1` gave a logP of 1.48. To `CN1CC=C(c2cccc(N)c2)CC1` belongs 1.47; to `CN1CC=C(c2ccc(Cl)cc2)CC1`, 3.32; to `C1=C(c2ccccc2)CCN(CCc2ccccc2)C1`, 3.98. `CC1=C(c2ccccc2)CCN(C)C1` had a lipophilicity (logP) of 3.18. As for `CCN1CC=C(c2ccccc2)CC1`, the lipophilicity (logP) turned out to be 3.18. Consider `CN1CC=C(c2ccncc2)CC1`, for which the logP was found to be 1.25. `CN1CC=C(c2cccs2)CC1` had a logP of 2.51. As for `Fc1ccc(C2=CCNCC2)cc1`, the log partition coefficient (logP) worked out at 2.37.

`OCCN1CC=C(c2ccccc2)CC1` gave a logP of 2. `Cc1ccccc1C1=CCN(C)CC1` had a logP of 3.1. In turn, `C1=C(c2ccccc2)CCNC1` registered a logP of 1.99.
